{"source": "patent US20220280425A1", "about": "“FLAVONOIDS AND LINOLEIC ACID USES IN HYPERTENSION” (King Abdulaziz University, priority 2021, published 2022)", "key": {"[1]": {"system": "angiotensin model of hypertensive rats", "experiment": "Invasive blood pressure recording in angiotensin II acute hypertension model", "type": "in vivo, male Wistar rats", "conditions": "for anti-hypertensive effect: current study, IV SNEDDS formulation, angiotensin II infused rats", "method": "(§1) Six-week-old male Wistar rats with a weight of (250-275 g) were obtained from Zagazig University. They were kept in clear cages made of polypropylene and with good ventilation (3-4 rats in each cage), under constant environmental conditions of 22±2° C. temperature, 50-60% relative humidity and 12-h day and night cycle. Unlimited rodent pellet food and purified water were provided to the rats. The experimental design and animal handling procedures were as indicated by the guidelines of the Ethical Committee for Animal Handling at Zagazig University.\nThe blood pressure was recorded invasively in real. The rats were subjected to anesthesia with single intraperitoneal injection of 100 mg/kg ketamine and 10 mg/kg xylazine. Animals' body temperature was held at 37° C. by means of a rectal probe and automated heating pads. A micro-tip pressure volume catheter (PV catheter, SPR-901, Millar Instruments, Houston, Tex., USA) was inserted via a small opening into the right carotid artery. This instrument can continuously monitor the arterial pressure. The micro-tip catheter was linked via a Power Lab Data Interface to a computer running the Lab Chart professional software (v8.0, AD Instruments, Bella Vista, Australia) incorporating blood pressure (BP) module. Following a stabilization time of 5 min, readings were continuously recorded. The BP module was employed to monitor the systolic and diastolic blood pressure.\n(§2) After 10 min (stabilization period) of basal recording of invasive blood pressure and ECG, angiotensin II (120 ng/min/kg) was slowly infused through the femoral vein using syringe pump and continued throughout the experiment duration.\n(§3) Invasive blood hemodynamics and ECG were continuously recorded throughout the experiment. Saline (0.3 ml) was injected in time control experiments.\n(§4) Values of the present study presented in form of mean ±SEM. Statistical analysis was carried out using the Prism 5 computer program (Graph Pad, USA). Statistical comparison was done using repeated measures Two way analysis of variance (ANOVA) followed by Bonferroni' post-hoc test of baseline-corrected data and P<0.05 was considered significant."}, "[2]": {"conditions": "previous report; cited from earlier work"}, "[3]": {"system": "angiotensin model of hypertensive rats", "experiment": "Electrocardiogram (ECG) recording in angiotensin II acute hypertension model", "type": "in vivo, male Wistar rats", "conditions": "IV formulation", "method": "as §1\nA Powerlab® system (AD Instruments, Bella Vista, Australia) linked to a computer running the LabChart professional software with the ECG module was employed to record the standard surface ECG according to the methodology outlined in a previous report by our group. The ECG module quantitatively assesses the various elements of the ECG.\nas §2, §3, §4"}, "[4]": {"conditions": "IV formulation, 10 min after doses 24 and 36 μg/kg, vs vehicle group, p<0.05"}, "[5]": {"conditions": "dose 36 μg/kg, vs vehicle group, p<0.05"}}}
{"smiles": "COc1cc(-c2cc(=O)c3c(O)c(OC)c(OC)cc3o2)cc(OC)c1OC", "note": "[Compound 1, umuhengerin]", "values": [{"measurement": "reflex tachycardia", "setting": "[1]; IV SNEDDS containing 10% linoleic acid", "result": "without reflex tachycardia"}, {"measurement": "dicrotic notch pressure", "setting": "[1]; [4]", "result": "significant reduction"}, {"measurement": "pulse pressure", "setting": "[1]; [4]", "result": "significant reduction"}, {"measurement": "non-ejection duration", "setting": "[1]; IV formulation, dose 36 μg/kg, vs vehicle group", "result": "significant increase"}, {"measurement": "SDP difference (systolic blood pressure-dicrotic notch pressure difference)", "setting": "[1]; IV formulation, doses 12, 24 and 36 μg/kg, vs vehicle group, p<0.05", "result": "significant reduction"}, {"measurement": "ejection duration", "setting": "[1]; IV formulation, doses 24 and 36 μg/kg, vs vehicle group", "result": "significant decrease"}, {"measurement": "time to peak", "setting": "[1]; IV formulation, vs vehicle group", "result": "no change"}, {"measurement": "systolic blood pressure", "setting": "[1]; IV linoleic acid SNEDDS formulation, 12, 24 and 36 μg/kg, 10 min after each dose, p<0.05", "result": "gradual dose dependent reduction"}, {"measurement": "diastolic blood pressure", "setting": "[1]; IV linoleic acid SNEDDS formulation, significant at 24 and 36 μg/kg vs plain IV formulation, p<0.05", "result": "gradual and reached a plateau with statistical significance"}, {"measurement": "anti-hypertensive effect", "setting": "[1]", "result": "observed"}, {"measurement": "heart rate", "setting": "[1]; medicated IV formulation compared with the plain IV formulation", "result": "did not produced any further effect"}, {"measurement": "vasodilation activity", "setting": "[2]", "result": "significant vasodilation activity"}, {"measurement": "JT interval", "setting": "[3]; 12, 24, 36 μg/kg", "result": "no significant effect"}, {"measurement": "P-wave duration", "setting": "[3]; 12, 24, 36 μg/kg", "result": "did not affect"}, {"measurement": "PR interval", "setting": "[3]; 12, 24, 36 μg/kg", "result": "did not affect"}, {"measurement": "QTc interval", "setting": "[3]; 12, 24, 36 μg/kg", "result": "no significant effect"}, {"measurement": "R wave amplitude", "setting": "[3]; [5]", "result": "significant decrease"}, {"measurement": "T wave amplitude", "setting": "[3]; [5]", "result": "increase"}]}
{"smiles": "COc1ccc(-c2cc(=O)c3c(O)cc(O)cc3o2)cc1OC", "note": "[Compound 4, luteolin-3′,4′ -dimethyl ether]", "values": [{"measurement": "anti-hypertensive effect", "setting": "[1]", "result": "lack of antihypertensive efficacy"}, {"measurement": "vasodilation activity", "setting": "[2]", "result": "significant vasodilation activity"}]}
